The values below come from patent publication US11952432B2, “Cell-permeable stapled peptide modules for cellular delivery” (Dana-Farber Cancer Institute, Inc., priority 2018, dated 2024).

One data set relates to cells. In words: Cellular uptake and intracellular distribution of TAMRA-labeled peptides by fluorescence microscopy. Particulars: for Distribution/Observations: TAMRA-labeled peptides 10 μM, approximately 1 hour incubation, fluorescence microscope. From the text: In Vitro Cell Uptake Assays: To assess cellular uptake of cargoes that are bound to cell-permeable stapled peptide modules, fluorescent tracers (e.g. TAMRA, FITC) are attached to the cell-permeable stapled peptide modules or the cargos. The cellular uptake can be tracked by, e.g., epifluorescence microscopy, fluorescence microscopy, confocal microscopy, and/or flow cytometry, at different time periods. In this manner, the rate of uptake and the intracellular distribution patterns of the stabilized peptides (e.g., CPSPs and CPSP-conjugates, other cell-permeable stapled peptides) can also be determined.
CPSP1-CPSP9 and L-CPSP (where L is an F-actin staining peptide) were labeled with a fluorescent dye, TAMRA. […] These TAMRA-labeled peptides (10 μM) were added to cell culture. After incubating the peptides with the cells for approximately 1 hour, the cells were examined by a fluorescence microscope.
Furthermore, TAMRA-labeled CPSP3 (SEQ ID NO: 14) (10 μM) and MitoTracker were both added to the cell culture.

Data set [1] concerns mitochondria of the treated cells. The data set is described as follows: Co-labeling of TAMRA-labeled CPSP3 with MitoTracker. The data set is classed as cell-based. As to conditions: 10 μM (FIG. 2); listed as TAMRA-labeled CPSP3.
The target in the next data set is T1, MCL-1 (Homo sapiens, UniProt Q07820).
T1 construct: expressed in transfected cells
T1 sequence (Q07820 whole entry, species assumed): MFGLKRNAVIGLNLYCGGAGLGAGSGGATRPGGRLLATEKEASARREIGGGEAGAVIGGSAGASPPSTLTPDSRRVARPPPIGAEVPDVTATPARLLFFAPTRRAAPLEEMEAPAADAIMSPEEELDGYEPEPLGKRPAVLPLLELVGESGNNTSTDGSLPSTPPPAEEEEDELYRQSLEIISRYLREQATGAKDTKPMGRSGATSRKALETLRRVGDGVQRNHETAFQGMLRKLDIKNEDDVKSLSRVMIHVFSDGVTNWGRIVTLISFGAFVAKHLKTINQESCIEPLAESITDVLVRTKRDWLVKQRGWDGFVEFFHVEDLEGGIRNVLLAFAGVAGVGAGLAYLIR
In words: Intracellular binding assay: colocalization with expressed MCL-1 ectopically targeted to the nuclear lamina. As to conditions: colocalization at nuclear lamina with ectopically targeted MCL-1 (FIG. 5). The data set is classed as cell-based. The source says:
Intracellular binding Assays: To assess the binding of the CPSP-fusions to their respective protein target(s), cells were transfected with a GFP binding nanobody fraction coupled to nuclear lamina binding sequence (lamin B1). This nanobody binds to GFP tagged proteins and recruits them to the nuclear lamina allowing the recruitment and visualization of proteins interacting with the GFP tagged protein of interest. For example, GFP-MCL-1 can be expressed and localized to the nuclear lamina, followed by treatment of cells with TAMRA-labeled ATSP-7041/MCL-1 SAHBD fusion, followed by confocal microscopy imaging to monitor for the colocalization of TAMRA-labeled CPSP fusion at the nuclear lamina.

The mark [2] stands for this setting: conjugated to CPSP3, 10 μM (FIG. 3B).

“Also recorded” adds a separate entry of the source. Bridge positions count the residues as written; N and C are the ends. Square brackets hold non-standard residues; d marks the D form. Ends that are not written are not given here. R8 = C=CCCCCCC[C@@](C)(N)C(=O)O; S5 = C=CCCC[C@](C)(N)C(=O)O; Nle = CCCC[C@H](N)C(=O)O; CycB = not defined here; βAla = NCCC(=O)O

For “* Ba LTF8EYWAQ CycB XSAAAGGGGGK (SEQ ID NO: 61) -[GCCTAGTTTATCACCAATAAT] (SEQ ID NO: 62) [TAMRA-ATSP-7041/PNA]”, the intracellular delivery result in the data set with cells (PNA fusion (FIG. 6)) was “robust intracellular delivery”. For “* Ba X R r R X B (SEQ ID NO: 15) [TAMRA-CPSP4]”, in the data set with cells, the Distribution/Observations entry is “Cytosol; Nucleus; Nucleolus; Endosomes; lysosomes”. Same read-out and setting: the result for “* Ba X R r R X R B G X R r R X R B (SEQ ID NO: 20) [TAMRA-CPSP9]” reads “Cytosol; Nucleus; Nucleolus; Endosomes; lysosomes”; that for “* Ba X R r R X R Naph (SEQ ID NO: 16) [TAMRA-CPSP5]”, “Cytosol; Nucleus; Nucleolus; Endosomes; lysosomes”. With “Ac B G V A D L I K K F E X I A K X E K* G G G G G X R r R X R B (SEQ ID NO: 21) (Ac-[Nle]GVADLIKKFE[S5]IAK[S5]EK(TAMRA)GGGGG[S5]R[dR]R[S5]R[Nle]; not fully specified (bridges); bridges not given here) [TAMRA-L-CPSP3]”, in the data set with cells, the Distribution/Observations entry is given as “Cytosol; Nucleus; Nucleolus; Endosomes; lysosomes;; also recorded: Actin filaments”. Further, in the data set with cells (setting [2]), the “delivery of the peptide into the cell” value was “robust delivery of the peptide into the cell” and the intracellular localization result is reported as “notable localization of L-CPSP3 to actin filaments”. Turning to “* Ba X R r R X R (SEQ ID NO: 12) [TAMRA-CPSP1]”, the Distribution/Observations result in the data set on cells is “Cytosol; Nucleus; Nucleolus; Endosomes; lysosomes”. With “* Ba X R r R X Naph (SEQ ID NO: 17) [TAMRA-CPSP6]”, in the data set with cells, the Distribution/Observations entry was “Cytosol; Nucleus; Nucleolus; Endosomes; lysosomes”. As for “* Ba X R r R X R B (SEQ ID NO: 14) [TAMRA-CPSP3]”, the Distribution/Observations entry with cells is “CPSP3 were enriched at mitochondria as well as Cytosol;; also recorded: Nucleus; Nucleolus; Endosomes; lysosomes”. Moreover, in data set [1], the “enrichment at the mitochondria (co-labeling with MitoTracker)” value is listed as “Enrichment of TAMRA-labeled CPSP3 at the mitochondria”. In the case of “* Ba X R R R X R B (SEQ ID NO: 18) [TAMRA-CPSP7]”, the Distribution/Observations result with cells is given as “Cytosol; Nucleus; Nucleolus; Endosomes; lysosomes”. “* Ba R K A L E T L R R V B D G V X R N H X T A F G G G G G L T F 8 E Y W A Q CycB X S A A (SEQ ID NO: 22) ([βAla]RKALETLRRV[Nle]DGV[S5]RNH[S5]TAFGGGGGLTF[R8]EYWAQ[CycB][S5]SAA; staple 16-20, 32-39 (inferred); reading uncertain; also: TAMRA label) [TAMRA-labeled MCL-1 SAHBD/ATSP-7041]”: the “delivery to the cytosol of treated cells” value in the data set with cells (4 μM, 4 hours (FIG. 1, FIGS. 4A-B)) is reported as “efficiently delivered to the cytosol”. Moreover, the “intracellular engagement of MCL-1” value with MCL-1 is “colocalization of the fusion to the nuclear lamina”; with MCL-1 (listed as CPSP-MCL-1 SAHBD conjugate), “retains the capacity to engage its intracellular target”. For the substance “* Ba X R r R X (SEQ ID NO: 13) [TAMRA-CPSP2]”, in the data set on cells, the Distribution/Observations result is on record as “Cytosol; Nucleus; Nucleolus; Endosomes; lysosomes”.

For “* Ba XRrRXRB-GZG-EALKKALRRHRFLWQR RQRA (SEQ ID NO: 63) ([βAla][S5]R[dR]R[S5]R[Nle]G[βAla]GEALKKALRRHRFLWQRRQRA; not fully specified (N-terminus, bridges); bridges not given here; also: TAMRA label) [TAMRA-CPSP3/vMIA]”, the intracellular delivery result with cells (10 μM, 1 h (FIG. 7, bottom panel)) is “robust intracellular delivery”. For the substance “* Ba X R r R X R B G B R X R r R X (SEQ ID NO: 19) [TAMRA-CPSP8]”, the Distribution/Observations entry in the data set with cells is “Cytosol; Nucleus; Nucleolus; Endosomes; lysosomes”.
